Test results reported in patent US8575148B2, “Spiro azepane-oxazolidinones as Kv1.3 potassium channel blockers” (Abbott Healthcare Products B.V., priority 2008, dated 2013).

Molecular target: T1, voltage gated potassium channel Kv1.3 (Homo sapiens, UniProt P22001)
T1 construct: expressed in transfected cells; host or cells: CHO cells
Experiment: In vitro inhibition of Kv1.3 potassium channels (Rb efflux, atomic absorption)
Type: cell-based
Conditions: CHO cells over-expressing Kv1.3, Rb efflux after depolarization, triplicate; for inhibition at 10 µM: 10^−5 M, read-out: percentage Kv1.3 inhibition at 10^−5M
Excerpt: In vitro inhibition of Kv1.3 potassium channels: the assay was used to determine the permeability of potassium ion channels expressed in the cell membrane. […] Adherent CHO cells over-expressing the voltage gated potassium channel Kv1.3 were loaded with Rb. Depolarization of the cells leads to opening of the potassium channels and to efflux of Rb through the potassium channels. Thus, the Rb concentration in the supernatant is proportional to the potassium ion channel permeability. To identify potassium channel blockers, cells were incubated with compounds before depolarization. A reduction of Rb in the supernatant indicated the presence of a potassium ion channel blocker. The Rb concentration in the supernatant was measured using an Atomic Absorption Spectrometer.
CHO cells expressing either Kv1.3, Kv1.5 or hERG ion channels were cultured at 37° C./5% CO2. Prior to the experiment cells were seeded in 96 well plates (Corning, N.Y., USA) and cultured for 24 h. Medium was discarded and replaced by 100 μl Rb buffer (10 mM HEPES pH 7.4, 5 mM Glucose, 5 mM RbCl, 140 mM NaCl, 2 mM CaCl2, 1 mM MgSO4) per well. After 4 h incubation the cells were washed three times with low potassium buffer (10 mM HEPES pH 7.4, 5 mM Glucose, 5 mM KCl, 140 mM NaCl, 2 mM CaCl2, 1 mM MgSO4). Compounds were dissolved in 75 μl low potassium buffer and added to the cells. After 12 minutes cells were depolarized by adding […] high potassium buffer (10 mM HEPES pH 7.4, 5 mM Glucose, 145 mM KCl, 2 mM CaCl2, 1 mM MgSO4), followed by additional 15 minutes of incubation. The supernatant was transferred in a 96 well plate and the Rb concentration was measured using a ZEEnit Atomic Absorption Spectrometer (Analytik Jena, Germany). By comparing control vs. depolarized w/o compound, the ion channel inhibition was determined. Measurements were done in triplicate.

T1 sequence (P22001 whole entry): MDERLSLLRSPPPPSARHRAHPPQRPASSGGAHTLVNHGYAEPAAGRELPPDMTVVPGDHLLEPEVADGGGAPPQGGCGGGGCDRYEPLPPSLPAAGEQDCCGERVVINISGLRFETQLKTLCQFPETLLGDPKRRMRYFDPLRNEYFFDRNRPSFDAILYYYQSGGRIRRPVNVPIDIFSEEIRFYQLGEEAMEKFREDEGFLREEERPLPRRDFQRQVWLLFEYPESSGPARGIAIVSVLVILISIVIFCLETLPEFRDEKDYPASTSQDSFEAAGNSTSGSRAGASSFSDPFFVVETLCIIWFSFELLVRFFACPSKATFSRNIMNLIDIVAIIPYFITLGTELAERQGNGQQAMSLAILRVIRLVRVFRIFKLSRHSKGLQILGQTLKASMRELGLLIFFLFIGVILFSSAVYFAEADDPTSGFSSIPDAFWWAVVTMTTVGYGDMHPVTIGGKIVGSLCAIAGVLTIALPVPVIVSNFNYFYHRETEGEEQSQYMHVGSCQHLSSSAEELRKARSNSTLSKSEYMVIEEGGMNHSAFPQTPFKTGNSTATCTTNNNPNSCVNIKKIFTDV

inhibition at 10 µM [%]	percentage Kv1.3 inhibition at 10^−5M [%]	SMILES
100		C[C@@H](c1ccccc1)N1C[C@@]2(CCCN(C(=O)c3cc(C(F)(F)F)cc(C(F)(F)F)c3)CC2)OC1=O [Compound 29, (5S)-8-[3,5-bis(trifluoromethyl)benzoyl]-3-[(1S)-1-phenylethyl]-1-oxa-3,8-diazaspiro[4.6]-undecan-2-one]
75		C[C@@H](c1ccccc1)N1C[C@]2(CCCN(C(=O)c3cc(C(F)(F)F)cc(C(F)(F)F)c3)CC2)OC1=O [Compound 30, (5R)-8-[3,5-bis(trifluoromethyl)benzoyl]-3-[(1S)-1-phenylethyl]-1-oxa-3,8-diazaspiro[4.6]-undecan-2-one]
	64	C[C@H](c1ccccc1)N1CC2(CCCN(C(=O)c3cc(C(F)(F)F)cc(C(F)(F)F)c3)CC2)OC1=O (stereo partly drawn) [Compound 31, 8-(3,5-trifluoromethyl-benzoyl)-3-[(R)-1-phenyl-ethyl]-1-oxa-3,8-diazaspiro[4.6]undecan-2-one]
99		C[C@H](c1ccccc1)N1C[C@@]2(CCCN(C(=O)c3cc(C(F)(F)F)cc(C(F)(F)F)c3)CC2)OC1=O [Compound 32, (5S)-8-[3,5-bis(trifluoromethyl)benzoyl]-3-[(1R)-1-phenylethyl]-1-oxa-3,8-diazaspiro[4.6]-undecan-2-one]
